The values below come from US12415830B2, “Steroid compound, and use thereof and preparation method therefor” (Chengdu Kanghong Pharmaceutical Co Ltd, priority 2019, dated 2025).

A value given as a limit tells only on which side of the number the result lay.

For one assay, the target named is T1, GABAA1 (α1β2γ2) receptor (Homo sapiens, UniProt P14867+P47870).
T1 construct: expressed in transfected cells
As to the kind of experiment: Patch-clamp electrophysiology on recombinant GABAA1 receptor in HEK293 cells, with 3 μM GABA. Format: cell-based. The following applies: for Emax at 0.1 µM / Emax at 1 µM / Emax: HEK293; for Emax at 0.1 µM: 0.1 μM compound together with 3 μmol GABA; for Emax at 0.1 µM / Emax at 1 µM: read-out: potency: ratio of the peak current on the GABAA1 receptor to the peak current in 100 μmol GABA; for Emax at 1 µM: 1 μM compound together with 3 μmol GABA; for Emax / EC50: together with 3 μmol GABA; for Emax: relative to peak current in 100 μmol GABA. How it is done:
The present invention applies the two subunits of the recombinant GABAA receptor: α1β2γ2 and α4β3δ to evaluate the potency of the exemplary compounds in vitro by patch-clamp electrophysiology.
Extracellular fluid: 140 mM NaCl, 5 mM CsCl, 2 mM CaCl2·2H2O, 1 mM MgCl2·6H2O, 5 mM HEPES, 10 mM D-Glucose, pH=7.4 (NaOH).
Intracellular fluid: 130 mM CsCl, 0.1 mM CaCl2·H2O, 2 mM MgCl2·6H2O, 1.1 mM EGTA, 5 mM Na2-ATP, 10 mM HEPES, pH=7.2 (CsOH).
The HEK293 cells line stably expressing GABAA (α1β2γ2) receptors was cultured in Dulbecco's Modified Eagle Medium (DMEM) supplemented with 10% fetal bovine serum, 800 μg/mL G418, 200 μg/mL Hygromycin B and 100 μg/mL Zeocin. Cells were grown in a humidified incubator at 37° C. with 5% carbon dioxide.
Before manual patch clamp test, the cells were detached using 0.25%-Trypsin-EDTA solution. Then 8×10^3 cells were plated onto coverslips, and cultured in a 24-well plate (final medium volume: 500 μL) and tested after 18 hours by patch clamp.
Glass pipette (BF 150-86-10, Sutter Instruments) was pulled using a micropipette puller (P97, Sutter Instruments). The glass pipette was manipulated using a micro-manipulator (MP285, Sutter Instruments) under the microscope (IX71, Olympus). After touching the cell, a slight suction was applied to achieve high seal resistance (GQ). Fast capacitance (in pF) compensation was made after achieving high seal, and the membrane was broken. Cell capacitance (in pF) compensation was made from whole-cell capacitance compensation after the whole cell mode was achieved. No leak subtraction was made.
The test and control solutions flowed into a recording chamber mounted on the stage of an inverted microscope via a gravity-fed solution delivery system. During the experiment, solutions were withdrawn from the recording chamber by vacuum aspiration. Each concentration was tested at multiple times. All tests were performed at room temperature.
Whole cell model recorded GABAA1 receptors current experimental protocol was indicated as follows: When sealing, cell was at a holding potential of −70 mV, with gap-free mode to record the peak current. The cell would be applied with 3 μM GABA to active current. After the test articles application for 30 s, each concentration of test articles was applied with 3 μM GABA followed by 2 minutes washout using extracellular solution. Finally, 100 μM GABA was used as a positive control. The data were collected by EPC-10 amplifier and stored in PatchMaster (HEKA) software.
The following criteria are used to determine whether the data is acceptable: • (1) Electrode resistance <5MΩ • (2) Seal resistance >1GΩ • (3) The start of access resistance <15 MΩ • (4) The end of access resistance <15 MΩ • (5) No obvious spontaneous current decay. • (6) No obvious current leakage when the membrane potential is-70 mv. 56.6 Data Analysis
In the detection of GABAA1, the currents of 3 μM GABA and different concentrations of test compounds were respectively normalized to the current of 100 μM GABA
[formula] and then the activation rate corresponding to each concentration was calculated.
[formula] and then the activation rate corresponding to each concentration was calculated. Means, Standard Deviation and Standard Error were calculated for each test group. EC50 value was calculated using nonlinear regression: Y=Bottom+(Top−Bottom)/(1+10^((Log EC50−X)×HillSlope))
To fit data to the concentration-response, EC50 was the concentration giving a half-maximum effect and Hillslope was the Hill coefficient. Curve-fitting and EC50 calculations were performed using Graphpad5.0 software.
Emax is defined as the ratio of the peak current generated on the GABAA1 receptor to the peak current generated only in 100 μmol of GABA and the ratio is multiplied by 100%. The peak current generated on the GABAA1 receptor is that the exemplary compounds act on the GABAA1 receptor together with 3 μmol GABA.
(In general: In patch-clamp work, channel activity is measured electrically.)

Assay [1] relates to mice. As to the kind of experiment: Light-dark shuttle box anti-anxiety test. The class given is in vivo. The following applies: 5 consecutive days, 30 min after last administration, male mice. An excerpt: 57.3.1 light-dark shuttle box: The light-dark shuttle box is a standard and well characterized assay for anxiolytic effects of the exemplary compounds. Mice naturally avoid the light of the box because light makes mice evasive and stressful, but the exploration habit of mice also prompts mice to try to explore a bright box. Increased time on the light of the box by the exemplary compounds reflects an anxiolytic effect on mice. The experimental mice were randomly divided into 5 groups based on weight, including a negative control group, two different dosage groups (1 mg/kg and 3 mg/kg) of the tested compounds (KH004 or KH022), and every group had 10 male mice. Mice were administered with corresponding dosage for tested intervention for 5 consecutive days in advance, and conducting anxiolytic experiments after 30 min of the last administration. The retention time in the light box was selected as the main index for evaluating the anti-anxiety effect of KH004 and KH022.

In assay [2] the test system is mice. Nature of the assay: Elevated Plus Maze (EPM) testing. The class given is in vivo. The following applies: 5 consecutive days, 30 min after last administration, male mice. An excerpt:
57.3.2 Elevated Plus Maze (EPM) testing: EPM for exploratory behavior was used to assess general motor and anxiety-like behavior that was consisting of two open arms and two closed arms extending from a common central platform, thus forming anxiety-like symptoms. The anxiolytic compound would relieve the anxiety conflict status of animals in the test system. The experimental mice were randomly divided into 4 groups based on weight, including a negative control group, two different dosage groups (1 mg/kg and 3 mg/kg) of test compounds (KH004 or KH022), and every group had 10 male mice. Mice were administered with corresponding dosage for test intervention for 5 consecutive days in advance, and conducting anxiolytic experiments after 30 min of the last administration. The percentage of the retention time (latency) of mice open arms were used as the main index to evaluate the anxiolytic effect of KH004 and KH022, the results are shown in Table 5.

T1 sequence (P14867 28-456): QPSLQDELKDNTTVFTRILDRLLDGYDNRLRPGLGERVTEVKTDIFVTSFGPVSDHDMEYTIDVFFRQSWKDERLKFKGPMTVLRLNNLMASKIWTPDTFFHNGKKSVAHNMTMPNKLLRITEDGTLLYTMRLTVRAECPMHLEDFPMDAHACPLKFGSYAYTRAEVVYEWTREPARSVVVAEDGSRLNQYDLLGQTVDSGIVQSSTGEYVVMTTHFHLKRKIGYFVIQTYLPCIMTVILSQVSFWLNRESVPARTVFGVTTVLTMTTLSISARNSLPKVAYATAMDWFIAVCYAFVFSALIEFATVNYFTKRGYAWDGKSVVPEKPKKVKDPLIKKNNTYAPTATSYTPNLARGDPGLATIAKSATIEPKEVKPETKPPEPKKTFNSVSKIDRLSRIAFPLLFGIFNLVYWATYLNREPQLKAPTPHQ
T1 sequence (P47870 26-512): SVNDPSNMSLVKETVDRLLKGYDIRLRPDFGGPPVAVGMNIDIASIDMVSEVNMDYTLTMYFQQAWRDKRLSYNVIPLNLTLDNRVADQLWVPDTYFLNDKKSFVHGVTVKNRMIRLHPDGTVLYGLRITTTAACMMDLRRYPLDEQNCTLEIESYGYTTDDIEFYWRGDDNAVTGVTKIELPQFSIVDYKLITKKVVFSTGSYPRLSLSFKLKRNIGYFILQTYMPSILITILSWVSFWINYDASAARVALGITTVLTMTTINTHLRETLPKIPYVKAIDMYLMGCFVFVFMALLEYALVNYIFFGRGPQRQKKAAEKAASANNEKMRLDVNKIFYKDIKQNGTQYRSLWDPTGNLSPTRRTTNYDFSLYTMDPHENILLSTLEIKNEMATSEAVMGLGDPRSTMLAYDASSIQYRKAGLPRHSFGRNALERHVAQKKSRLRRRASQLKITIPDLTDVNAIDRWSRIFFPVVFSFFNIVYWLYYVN
T1 sequence (P18507 40-475 partner): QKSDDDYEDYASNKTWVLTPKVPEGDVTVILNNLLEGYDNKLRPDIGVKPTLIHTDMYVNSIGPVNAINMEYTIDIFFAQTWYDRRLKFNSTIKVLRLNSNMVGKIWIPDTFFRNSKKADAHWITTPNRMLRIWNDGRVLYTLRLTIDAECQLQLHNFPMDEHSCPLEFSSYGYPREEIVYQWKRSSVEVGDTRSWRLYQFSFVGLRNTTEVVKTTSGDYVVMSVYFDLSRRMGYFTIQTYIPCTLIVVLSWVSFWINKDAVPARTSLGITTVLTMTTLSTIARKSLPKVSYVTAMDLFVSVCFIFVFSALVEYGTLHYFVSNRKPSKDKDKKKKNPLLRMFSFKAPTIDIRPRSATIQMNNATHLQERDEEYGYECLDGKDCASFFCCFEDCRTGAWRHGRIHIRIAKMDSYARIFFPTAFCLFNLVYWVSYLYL

In general, EC50 refers to the concentration giving half of the maximal effect. `C[C@]12CC[C@@H](O)C[C@@H]1CC[C@@H]1[C@@H]2CC[C@]2(C)[C@@H](C(=O)Cn3ncnn3)CCC[C@@H]12` [KH004]: on GABAA1 (α1β2γ2) receptor, the Emax at 0.1 µM fell in the range of 20 to 40%, the Emax at 1 µM is > 80%, the Emax was found to be 106% and the EC50 was 404 nM. For the same compound, the “The retention time in the light box” value in the assay on mice [1] (1.0 mg/kg) came out at 50.30 ± 6.89 %. For the same compound, the “The retention time in the light box” value in the assay with mice [1] (3.0 mg/kg) was 53.91 ± 9.37 %. Also, the “The retention time of mice open arms” value with mice [2] (1 mg/kg) turned out to be 27.21 ± 11.15 %. Besides, the “The retention time of mice open arms” value in the assay with mice [2] (3 mg/kg) was 36.44 ± 13.28 %.

With `C[C@@]1(O)CC[C@@]2(C)[C@@H](CC[C@@H]3[C@@H]2CC[C@]2(C)[C@@H](C(=O)Cn4ncnn4)CCC[C@@H]32)C1` [KH022], at GABAA1 (α1β2γ2) receptor, the Emax at 0.1 µM was in the range of 0 to 20%, the Emax at 1 µM was in the range of 40 to 60%, the Emax was 93.1% and the EC50 was found to be 821 nM. In addition, the “The retention time in the light box” value in the assay with mice [1] (1.0 mg/kg) turned out to be 50.00 ± 4.59 %. The “The retention time in the light box” value in the assay on mice [1] (3.0 mg/kg) was 56.66 ± 7.96 %. Further, in the assay on mice [2] (1 mg/kg), the “The retention time of mice open arms” value was found to be 31.40 ± 16.41 %. Further, the “The retention time of mice open arms” value in the assay on mice [2] (3 mg/kg) is 39.46 ± 11.82 %.

`C[C@@]1(O)CC[C@H]2[C@H](CC[C@@H]3[C@@H]2CC[C@]2(C)[C@@H](C(=O)Cn4cc(C#N)cn4)CC[C@@H]32)C1` [The control, reference compound]: on GABAA1 (α1β2γ2) receptor, the Emax at 0.1 µM fell in the range of 0 to 20%, the Emax at 1 µM fell in the range of 20 to 40% and the Emax was found to be 84.2%.
